According to patent publication US20180000085A1, “USE OF PICOLINAMIDE COMPOUNDS WITH FUNGICIDAL ACTIVITY” (DOW AGROSCIENCES LLC, priority 2014, published 2018):

Key:
Puccinia triticina = experiment: Wheat brown rust (PUCCRT) disease control on wheat seedlings; format: in vivo; set-up: key to PUCCRT 3DC, HV activity at 100 ppm (% control rating) / PUCCRT disease control, 3DC / PUCCRT 1DP disease control rating, HV activity / PUCCRT 3DC disease control rating, HV activity / PUCCRT 3DC, LV activity at 125.1 g/H (% Control rating) / PUCCRT 1DP, LV activity at 125.1 g/H (% Control rating) / PUCCRT 3DC disease control rating, LV activity at 125.1 g/H / PUCCRT 1DP disease control rating, LV activity at 125.1 g/H / PUCCRT 3DC disease control rating, HV activity at 100 ppm / PUCCRT 1DP disease control rating, HV activity at 100 ppm / HV activity at 100 ppm PUCCRT 3DC (disease control rating) / LV activity at 125.1 g/H PUCCRT 1DP (disease control rating) / LV activity at 125.1 g/H PUCCRT 3DC (disease control rating): A: > 80; B: ≤ 80; C: Not Tested; D: No Activity Observed in the Reported Assay; details: for PUCCRT 1DP disease control rating, LV activity at 125.1 g/H / PUCCRT 1DP disease control rating, HV activity at 100 ppm: 1 day protectant; for PUCCRT 3DC disease control rating, LV activity at 125.1 g/H / PUCCRT 3DC disease control rating, HV activity at 100 ppm: 3 day curative; for PUCCRT 1DP disease control rating, HV activity at 100 ppm / PUCCRT 3DC disease control rating, HV activity at 100 ppm: high volume application
Zymoseptoria tritici = experiment: Leaf blotch of wheat (SEPTTR) disease control on wheat seedlings; format: in vivo; set-up: key to SEPTTR 1DP, HV activity at 100 ppm (% control rating) / SEPTTR 3DC, HV activity at 100 ppm (% control rating) / SEPTTR disease control, 1DP / SEPTTR disease control, 3DC / SEPTTR 1DP disease control rating, HV activity / SEPTTR 3DC disease control rating, HV activity / SEPTTR 3DC, LV activity at 125.1 g/H (% Control rating) / SEPTTR 1DP, LV activity at 125.1 g/H (% Control rating) / SEPTTR 1DP disease control rating, LV activity at 125.1 g/H / SEPTTR 3DC disease control rating, LV activity at 125.1 g/H / SEPTTR 3DC disease control rating, HV activity at 100 ppm / SEPTTR 1DP disease control rating, HV activity at 100 ppm / HV activity at 100 ppm SEPTTR 3DC (disease control rating) / HV activity at 100 ppm SEPTTR 1DP (disease control rating) / LV activity at 125.1 g/H SEPTTR 1DP (disease control rating) / LV activity at 125.1 g/H SEPTTR 3DC (disease control rating): A: > 80; B: ≤ 80; C: Not Tested; D: No Activity Observed in the Reported Assay; details: for SEPTTR 1DP disease control rating, LV activity at 125.1 g/H / SEPTTR 1DP disease control rating, HV activity at 100 ppm: 1 day protectant; for SEPTTR 3DC disease control rating, LV activity at 125.1 g/H / SEPTTR 3DC disease control rating, HV activity at 100 ppm: 3 day curative; for SEPTTR 1DP disease control rating, HV activity at 100 ppm / SEPTTR 3DC disease control rating, HV activity at 100 ppm: high volume application
[1] = low volume application, 125.1 g/H

| SMILES | PUCCRT 1DP disease control rating, LV activity at 125.1 g/H (Puccinia triticina; [1]) | PUCCRT 3DC disease control rating, LV activity at 125.1 g/H (Puccinia triticina; [1]) | SEPTTR 1DP disease control rating, LV activity at 125.1 g/H (Zymoseptoria tritici; [1]) | SEPTTR 3DC disease control rating, LV activity at 125.1 g/H (Zymoseptoria tritici; [1]) | also measured |
| --- | --- | --- | --- | --- | --- |
| COc1ccnc(C(=O)N[C@@H](C)C(=O)O[C@@H](C)[C@H](Oc2ccc(Cl)cc2)C2CCCC2)c1OC(C)=O [Cmpd 921] | A (> 80) | A (> 80) | A (> 80) | B (≤ 80) |  |
| CCC(CC)C(Oc1cc(F)ccc1F)C(C)OC(=O)C(CC(C)C)NC(=O)c1nccc(OC)c1OC(C)=O (stereo not shown) [Cmpd 687] | D | B (≤ 80) | D | B (≤ 80) |  |
| COc1cc(O[C@H](CC(C)C)[C@H](C)OC(=O)[C@H](C)NC(=O)c2nccc(OC)c2O)ccc1Cl [Cmpd 1052] |  |  |  |  | HV activity at 100 ppm PUCCRT 1DP (disease control rating) (Puccinia triticina; HV application, 100 ppm, 1 Day Protectant, wheat brown rust): A (> 80); HV activity at 100 ppm PUCCRT 3DC (disease control rating) (Puccinia triticina; HV application, 100 ppm, 3 Day Curative, wheat brown rust): A (> 80); HV activity at 100 ppm SEPTTR 1DP (disease control rating) (Zymoseptoria tritici; HV application, 100 ppm, 1 Day Protectant, wheat leaf blotch): A (> 80); HV activity at 100 ppm SEPTTR 3DC (disease control rating) (Zymoseptoria tritici; HV application, 100 ppm, 3 Day Curative, wheat leaf blotch): A (> 80) |
| COc1ccnc(C(=O)NC(C)C(=O)OC(C)C(OCC2CC2)C23CC4CC(CC(C4)C2)C3)c1O (stereo not shown) [Cmpd 827] |  |  |  |  | PUCCRT 1DP disease control rating, HV activity at 100 ppm (Puccinia triticina; 100 ppm): A (> 80); PUCCRT 3DC disease control rating, HV activity at 100 ppm (Puccinia triticina; 100 ppm): D; SEPTTR 1DP disease control rating, HV activity at 100 ppm (Zymoseptoria tritici; 100 ppm): B (≤ 80); SEPTTR 3DC disease control rating, HV activity at 100 ppm (Zymoseptoria tritici; 100 ppm): D |
| COc1ccnc(C(=O)NC(C)C(=O)OC(C)C(Oc2cccc(C(F)(F)F)c2)C(C)C)c1OC(C)=O (stereo not shown) [Cmpd 858] | A (> 80) | A (> 80) | B (≤ 80) | A (> 80) |  |
| C=CC[C@@H](Oc1ccccc1)[C@H](C)OC(=O)[C@H](C)NC(=O)c1nccc(OC)c1OC(C)=O [Cmpd 695] | A (> 80) | A (> 80) | B (≤ 80) | B (≤ 80) |  |
| C=CC[C@@H](Oc1ccccc1)[C@H](C)OC(=O)[C@H](C)NC(=O)c1nccc(OC)c1OCOC(C)=O [Cmpd 698] | A (> 80) | A (> 80) | B (≤ 80) | A (> 80) |  |
| C=CC[C@@H](Oc1cc(F)cc(Cl)c1)[C@H](C)OC(=O)[C@H](C)NC(=O)c1nccc(OC)c1OC(C)=O [Cmpd 1080] |  |  |  |  | LV activity at 125.1 g/H PUCCRT 1DP (disease control rating) (Puccinia triticina; low volume application, 125.1 g/H, 1 Day Protectant, wheat brown rust): A (> 80); LV activity at 125.1 g/H PUCCRT 3DC (disease control rating) (Puccinia triticina; low volume application, 125.1 g/H, 3 Day Curative, wheat brown rust): B (≤ 80); LV activity at 125.1 g/H SEPTTR 1DP (disease control rating) (Zymoseptoria tritici; low volume application, 125.1 g/H, 1 Day Protectant, wheat leaf blotch): B (≤ 80); LV activity at 125.1 g/H SEPTTR 3DC (disease control rating) (Zymoseptoria tritici; low volume application, 125.1 g/H, 3 Day Curative, wheat leaf blotch): B (≤ 80) |
| COc1cc(O[C@@H]([C@H](C)OC(=O)[C@H](C)NC(=O)c2nccc(OC)c2O)C(C)(C)C)ccc1Cl [Cmpd 1001] |  |  |  |  | PUCCRT 1DP disease control rating, HV activity at 100 ppm (Puccinia triticina; 100 ppm): A (> 80); PUCCRT 3DC disease control rating, HV activity at 100 ppm (Puccinia triticina; 100 ppm): A (> 80); SEPTTR 1DP disease control rating, HV activity at 100 ppm (Zymoseptoria tritici; 100 ppm): B (≤ 80); SEPTTR 3DC disease control rating, HV activity at 100 ppm (Zymoseptoria tritici; 100 ppm): D |
| CCC(CC)[C@@H](Oc1ccccc1Cl)[C@H](C)OC(=O)[C@@H](NC(=O)c1nccc(OC)c1O)C(C)C [Cmpd 411] |  |  |  |  | PUCCRT 1DP disease control rating, HV activity (Puccinia triticina; HV application at 100 ppm, 1 Day Protectant, wheat brown rust): A (> 80); PUCCRT 3DC disease control rating, HV activity (Puccinia triticina; HV application at 100 ppm, 3 Day Curative, wheat brown rust): D; SEPTTR 1DP disease control rating, HV activity (Zymoseptoria tritici; HV application at 100 ppm, 1 Day Protectant, wheat leaf blotch): B (≤ 80); SEPTTR 3DC disease control rating, HV activity (Zymoseptoria tritici; HV application at 100 ppm, 3 Day Curative, wheat leaf blotch): B (≤ 80) |
